From PubChem BioAssay AID180 (DTP/NCI, 2004)

Tested on: BDF1 mice, Adenocarcinoma 755 s.c., tumor weight T/C
Assay: NCI In Vivo Anticancer Drug Screen. Data for tumor model Adenocarcinoma 755 (subcutaneous) in B6D2F1 (BDF1) mice
Conditions: endpoint: mean tumor weight, higher = larger tumour
In short: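 Readout: T/C, i.e. treated-group measurement over vehicle-control measurement. Endpoint is survival or tumor size in tumor-bearing mice given compound.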

[1] = dose: 15.0 mg/kg/injection, schedule: Q01DX011 (ip), vehicle: methylcellulose (MC)
[2] = dose: 31.0 mg/kg/injection, schedule: Q01DX011 (ip), vehicle: methylcellulose (MC)
[3] = dose: 62.0 mg/kg/injection, schedule: Q01DX011 (ip), vehicle: methylcellulose (MC)
[4] = dose: 250.0 mg/kg/injection, schedule: Q01DX011 (ip), vehicle: methylcellulose (MC)

How did the T/C (dose: 1.5 mg/kg/injection, schedule: Q01DX011 (ip), vehicle: carboxymethylcellulose (CMC)) turn out when CCC(=O)OCC1OC(n2cnc3c(=S)nc(N)[nH]c32)C(OC(=O)CC)C1OC(=O)CC (stereo not given) was run?
Its T/C is 96 % of control.

And the T/C (dose: 3.0 mg/kg/injection, schedule: Q01DX011 (ip), vehicle: carboxymethylcellulose (CMC))?
Its T/C is 17 % of control.

What about the T/C (dose: 6.0 mg/kg/injection, schedule: Q01DX011 (ip), vehicle: carboxymethylcellulose (CMC)) of the same molecule?
The T/C was 3 % of control.

What about the T/C (dose: 12.0 mg/kg/injection, schedule: Q01DX011 (ip), vehicle: carboxymethylcellulose (CMC)) of the same molecule?
Its T/C is 1 % of control.

How did the T/C [1] turn out when N#Cc1ccc(Nc2cc(Cl)nc(N)n2)cc1 was run?
Its T/C is 89 % of control.

What about the T/C [2] of the same molecule?
The T/C was 87 % of control.

And the T/C [3]?
Its T/C is 50 % of control.

And the T/C (dose: 125.0 mg/kg/injection, schedule: Q01DX011 (ip), vehicle: methylcellulose (MC))?
Its T/C is 97 % of control.

And the T/C [4]?
The T/C was 65 % of control.

How did the T/C (dose: 15.0 mg/kg/injection, schedule: Q01DX011 (ip), vehicle: saline) turn out when CCOC(C)C(/C=N/NC(N)=S)=NNC(N)=S (stereo not given) was run?
The T/C was 49 % of control.

What about the T/C (dose: 30.0 mg/kg/injection, schedule: Q01DX011 (ip), vehicle: saline) of the same molecule?
Its T/C is 109 % of control.

What about the T/C (dose: 60.0 mg/kg/injection, schedule: Q01DX011 (ip), vehicle: saline) of the same molecule?
Its T/C is 117 % of control.

And the T/C (dose: 120.0 mg/kg/injection, schedule: Q01DX011 (ip), vehicle: saline)?
Its T/C is 71 % of control.

Which results are given for CCCNc1cc(=O)[nH]c(N)n1?
T/C (dose: 55.0 mg/kg/injection, schedule: Q01DX011 (ip), vehicle: methylcellulose (MC)): 110 % of control; T/C (dose: 165.0 mg/kg/injection, schedule: Q01DX011 (ip), vehicle: methylcellulose (MC)): 41 % of control

With [O-][N+](CCO)(CCO)c1ncnc2nc[nH]c12 as the molecule, how does the T/C (dose: 25.0 mg/kg/injection, schedule: Q01DX011 (ip), vehicle: saline) read?
Its T/C is 121 % of control.

What about the T/C (dose: 75.0 mg/kg/injection, schedule: Q01DX011 (ip), vehicle: saline) of the same molecule?
The T/C was 72 % of control.

What about the T/C (dose: 225.0 mg/kg/injection, schedule: Q01DX011 (ip), vehicle: saline) of the same molecule?
The T/C was 82 % of control.

Which results are given for Nc1ncnc2c1cnn2C1CCCCO1 (stereo not given)?
T/C (dose: 1.75 mg/kg/injection, schedule: Q01DX011 (ip), vehicle: methylcellulose (MC)): 74 % of control; T/C (dose: 3.5 mg/kg/injection, schedule: Q01DX011 (ip), vehicle: methylcellulose (MC)): 50 % of control; T/C (dose: 7.0 mg/kg/injection, schedule: Q01DX011 (ip), vehicle: methylcellulose (MC)): 21 % of control; T/C (dose: 14.0 mg/kg/injection, schedule: Q01DX011 (ip), vehicle: methylcellulose (MC)): 1 % of control

CNC(=O)Cc1ccccc1 was tested. Which T/C (dose: 125.0 mg/kg/injection, schedule: Q01DX011 (ip), vehicle: water) did it give?
Its T/C is 70 % of control.

And the T/C (dose: 250.0 mg/kg/injection, schedule: Q01DX011 (ip), vehicle: water)?
The T/C was 63 % of control.

And the T/C (dose: 500.0 mg/kg/injection, schedule: Q01DX011 (ip), vehicle: water)?
Its T/C is 30 % of control.

What does the source list for CCCCCCC(=O)NC1=C(N2CC2)C(=O)C(NC(=O)CCCCCC)=C(N2CC2)C1=O?
T/C (dose: 11.25 mg/kg/injection, schedule: Q01DX011 (ip), vehicle: carboxymethylcellulose (CMC)): 48 % of control; T/C (dose: 45.0 mg/kg/injection, schedule: Q01DX011 (ip), vehicle: carboxymethylcellulose (CMC)): 4 % of control

For CCc1c(Cl)nc(N)nc1Nc1ccccc1Br, which T/C [1] is on record?
Its T/C is 96 % of control.

What about the T/C [2] of the same molecule?
Its T/C is 101 % of control.

What about the T/C [3] of the same molecule?
Its T/C is 76 % of control.

What about the T/C [4] of the same molecule?
The T/C was 75 % of control.

What does the source list for CCN(CC)CCOc1ccc(C2=C(c3ccccc3)CCc3cc(OC)ccc32)cc1?
T/C (dose: 25.0 mg/kg/injection, schedule: Q01DX011 (sc), vehicle: steriod suspending solution): 48 % of control; T/C (dose: 50.0 mg/kg/injection, schedule: Q01DX011 (sc), vehicle: steriod suspending solution): 32 % of control

Which results are given for CS(=O)(=O)OCCC(=O)NCCCCCNC(=O)CCOS(C)(=O)=O?
T/C (dose: 57.0 mg/kg/injection, schedule: Q01DX011 (ip), vehicle: methylcellulose (MC)): 64 % of control; T/C (dose: 113.0 mg/kg/injection, schedule: Q01DX011 (ip), vehicle: methylcellulose (MC)): 53 % of control; T/C (dose: 225.0 mg/kg/injection, schedule: Q01DX011 (ip), vehicle: methylcellulose (MC)): 30 % of control

With CN(C)c1ccc(Nc2c3ccccc3nc3ccccc23)cc1 as the molecule, how does the T/C (dose: 9.0 mg/kg/injection, schedule: Q01DX011 (ip), vehicle: saline) read?
The T/C was 70 % of control.

And the T/C (dose: 18.0 mg/kg/injection, schedule: Q01DX011 (ip), vehicle: saline)?
Its T/C is 91 % of control.

And the T/C (dose: 35.0 mg/kg/injection, schedule: Q01DX011 (ip), vehicle: saline)?
The T/C was 75 % of control.

And the T/C (dose: 70.0 mg/kg/injection, schedule: Q01DX011 (ip), vehicle: saline)?
The T/C was 39 % of control.
